{"source": "the NIST ThermoML archive (doi:10.1021/je034023f)", "assay": "Henry's Law constant (molality scale); of the first substance listed, at infinite dilution; mn = molality of the nth substance listed, in mol/kg", "conditions": "Liquid, m1 = 0", "note": "± gives the expanded uncertainty stated by the source.", "data": [{"smiles": "O=C=O", "note": "[carbon dioxide] + CCCCn1cc[n+](C)c1.F[P-](F)(F)(F)(F)F", "values": [{"measurement": "Henry's Law constant", "setting": "293.15 K", "value": "1200 ± 80", "unit": "kPa·kg/mol"}, {"measurement": "Henry's Law constant", "setting": "313.15 K", "value": "1890 ± 80", "unit": "kPa·kg/mol"}, {"measurement": "Henry's Law constant", "setting": "333.15 K", "value": "2700 ± 80", "unit": "kPa·kg/mol"}, {"measurement": "Henry's Law constant", "setting": "353.15 K", "value": "3570 ± 80", "unit": "kPa·kg/mol"}, {"measurement": "Henry's Law constant", "setting": "373.15 K", "value": "4470 ± 80", "unit": "kPa·kg/mol"}, {"measurement": "Henry's Law constant", "setting": "393.15 K", "value": "5490 ± 80", "unit": "kPa·kg/mol"}]}]}
